In patent publication US20210353595A1, “USE OF MELATONIN IN PREPARATION OF MEDICAMENT FOR INHIBITING AND/OR KILLING BACTERIUM” (priority 2020, published 2021):
“Also recorded” adds a separate entry of the source.

Assays:
[1] = system: citrate synthase of Pasteurella multocida; assay: Citrate synthase activity of bacteria after treatment; type: cell-based; settings: MT 1, 2, 3 mg/mL, 12 h; FIG. 15
Protocol: Based on the discovery of metabolomics, the enzyme activity of citrate synthase after melatonin treatment was studied. 1 mL of Pasteurella multocida (1×10^9 CFU) at the logarithmic growth stage was added into 100 mL of fresh and sterile Martin broth medium containing different concentrations (1 mg/mL, 2 mg/mL, and 3 mg/mL) of MT. Melatonin-free DMSO was used as a solvent control group, and the bacterial cells were cultured in a constant-temperature shaker at 37° C. and 220 rpm for 12 h. Thereafter, 1 mL of the bacterial solution was centrifuged at 3000 r/min for 10 minutes, and the supernatant and precipitated cells were collected, respectively. The citrate synthase activity was determined using a determination kit according to the protocol of the instructions. Each experiment was repeated for three times, and each group was set in triplicate. Further, 1 mL of Pasteurella multocida (1×10^9 CFU) at the logarithmic growth stage was added into 100 mL of fresh and sterile Martin broth medium containing different concentrations of melatonin and citric acid (MT-1 mg/mL, MT-2 mg/mL, MT-3 mg/mL, CA-1 mg/mL, CA-2 mg/mL, CA-3 mg/mL, MT-1 mg/mL-CA-1 mg/mL, MT-2 mg/mL-CA-2 mg/mL, MT-3 mg/mL-CA-3 mg/mL). […] The citrate synthase activity was determined using a determination kit according to the protocol of the instructions. […]

[2] = molecular target: T1, citrate synthase in lung epithelial cells (Mus musculus, UniProt Q9CZU6); assay: Citrate synthase enzyme activity in lung epithelial cells; type: cell-based; settings: melatonin up to 40 mg/mL; 1MOI Pasteurella multocida, 12 h; FIG. 26
T1 construct: lysed by ultrasound at a low temperature, and then the enzyme activity of citrate synthase was analyzed; endogenous in cells; host or cells: mouse lung epithelial cells
T1 sequence (Q9CZU6 28-464): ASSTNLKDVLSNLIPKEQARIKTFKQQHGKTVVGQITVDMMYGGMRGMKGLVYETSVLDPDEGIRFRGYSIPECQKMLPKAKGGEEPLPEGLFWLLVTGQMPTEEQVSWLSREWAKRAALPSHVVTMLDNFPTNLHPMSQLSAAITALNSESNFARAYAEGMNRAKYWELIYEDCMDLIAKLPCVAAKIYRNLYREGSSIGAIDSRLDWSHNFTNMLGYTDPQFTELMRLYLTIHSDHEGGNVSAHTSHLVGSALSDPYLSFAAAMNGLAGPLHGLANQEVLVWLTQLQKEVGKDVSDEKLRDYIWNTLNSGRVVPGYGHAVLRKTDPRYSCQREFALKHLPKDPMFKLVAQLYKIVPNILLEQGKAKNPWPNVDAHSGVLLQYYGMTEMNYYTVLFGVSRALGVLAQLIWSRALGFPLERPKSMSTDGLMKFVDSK
Protocol: 2×10^5 mouse lung epithelial cells per well were inoculated into a 48-well microplate, and cultured in a 5% CO2 incubator at 37° C. until full confluence of the cells. The non-adherent cells were washed away with 1×PBS, and the cells were treated with melatonin with the final concentrations of 1, 2, 3, 10, 20 and 40 mg/ml, while the control group was treated with the same volume of DMSO. After melatonin treatment for 30 min, 1MOI Pasteurella multocida was added into the culture medium for continue culture. After 12 h, the bacterial cells were collected, lysed by ultrasound at a low temperature, and then the enzyme activity of citrate synthase was analyzed. For specific test steps, please refer to the kit for detecting the enzyme activity of the citrate synthase. Each experiment was repeated three times, and each group was set in hexaplicate.

Pasteurella multocida = assay: Prevention and treatment of Pasteurella multocida infection in mice; type: in vivo, C57BL/6 mice
Protocol: C57 mice purchased from the Third Military Medical University were randomly divided into four groups (10 mice in each group): a group of Pasteurella multocida+solvent control, a group of Pasteurella multocida+MT (30 mg/kg), a group of Pasteurella multocida+MT (60 mg/kg), and a group of Pasteurella multocida+MT (120 mg/kg). Before Pasteurella multocida infection, MT was injected intraperitoneally to the experimental group (injection once in the morning) for consecutive 7 days (P) or 6 days (P-1), while the control mice received the equal amount of DMSO. Thereafter, mice were infected by intraperitoneal injection of suspension of Pasteurella multocida ([…]). The survival rate of mice within 7 days was monitored and recorded. Blood samples were collected from mice, and the serum was stored at −20° C. for later ELISA test. Lung samples were collected and homogenized aseptically, and then the bacterial load was quantified by serial dilution, plate inoculation and CFU counting.
Mice were randomly divided into four groups (10 mice in each group) as described in #1, described above. In the experimental group, after infection with 2.2×10^5 CFU of Pasteurella multocida through intraperitoneal injection, MT was injected intraperitoneally for four times, with the first injection 30 minutes after Pasteurella multocida infection, then the injection was performed once every 6 hours, for three times in total. Control mice were given an equal amount of DMSO at the same four time points. Subsequently, the survival rate of mice within 7 days was recorded. At the same time, mice were euthanized at 12 h, 16 h, 24 h and 32 h after infection to collect tissue and serum samples for later ELISA and bacterial count analysis.
In order to measure the colonization of mouse lung bacteria before and after melatonin treatment, the lung tissues of mice were collected 24 hours and 32 hours after infection. The tissues were homogenized under aseptic conditions, and the bacterial content was determined by continuous dilution of 10 times in saline. […]

inflammatory cytokines = assay: RT-PCR and ELISA of inflammatory cytokines after Pasteurella multocida infection; type: in vivo, C57BL/6 mice; settings: 24 hours after infection, lung tissues and serum
Protocol: The mouse lung tissue samples were collected, and the total RNA of mouse lung tissues was extracted according to the instructions of the total RNA extraction kit (Invitrogen). According to the instructions of a TaKaRa reverse transcription kit, cDNA was prepared and reverse transcribed with the general process as follows:
The process of qRT-PCR was carried out with reference to previous studies, and (3-actin was used as a reference gene to normalize the transcription level of the target gene. The specific primer sequences used are shown in Table 2. The relative expression level of the gene was calculated according to the equation 2^−(ΔΔCt), wherein ΔΔCt=(CT of the target gene−Ct of the internal reference) of the experimental group−(Ct of the target gene−Ct of the internal reference) of the control group.
ELISA samples were divided into serum samples and lung tissue homogenate samples. Among them, the process of collecting serum was collecting mouse whole blood from the eyeball, storing overnight at 4° C., centrifuging at 5000 rpm for 10 min, collecting the supernatant and storing it at −20° C. for later use. While the preparation process of the mouse lung homogenate was collecting lung tissues, adding 2 mL sterile normal saline to prepare a homogenate, then repeatedly freezing and thawing the homogenate in liquid nitrogen (5 min) and ice-water bath for 3 times, then centrifuging at 4° C. and 12000 rpm for 10 min, and collecting the supernatant for later use. According to the instructions of the kit, the serum and the supernatant of lung tissue homogenate as prepared were detected for IL-10, IL-4, IL-6, IL-10, TNF-α and IFN-γ (eBioscience).

For `COc1ccc2[nH]cc(CCNC(C)=O)c2c1` [melatonin, N-acetyl-5-methoxytryptamine], the “activity of citrate synthase in the bacteria and the culture medium” value [1] was “significantly reduced; also recorded: significantly inhibiting”, the “enzyme activity of citrate synthase in lung epithelial cells” value [2] was “did not affect” and the “bacterial colonization in the lung tissues of mice” value (Pasteurella multocida; 24 hours and 32 hours after infection, prevention and treatment groups vs DMSO group) was “significantly reduced”. The “decrease of bacterial colonization amount (CFU/g)” value (Pasteurella multocida; dose of 120 mg/kg, lung tissues) was “about 2 log 10”, the “survival rates of mice” value (Pasteurella multocida; prevention and treatment groups vs DMSO group, intraperitoneal, FIGS. 29-34) was “significantly improved” and the “expression of IFN-γ” value (inflammatory cytokines) was “significantly reduced”. For the same compound, the “expression of IL-6” value (inflammatory cytokines) was “significantly reduced”, the “expression of TNF-α” value (inflammatory cytokines) was “significantly reduced” and the “transcription and expression of IL-4” value (inflammatory cytokines) was “promoted”. The “transcription and expression of IL-10” value (inflammatory cytokines) was “promoted”.
